Results published in patent EP3539977B1, “ENZYMES WITH CHLOROGENIC ACID ESTERASE ACTIVITY AND FERULOYL ESTERASE ACTIVITY” (SternEnzym GmbH & Co. KG, priority 2014, dated 2016).
Where “and” joins values, the source holds several entries; their conditions need not be identical. Equal entries are not always repeated. Where two headings read alike, the source gives them in different places.

How the values were obtained:
UmChlE [1] = target: T1, UmChlE (Mycosarcoma maydis, UniProt A0A060S684, P492L); assay: biochemical; assay type: biochemical, Ustilago maydis; conditions: for Relative esterase activity: 1 h, 37 °C, 50 mM Tris pH 7.5
T1 construct: purification of the chlorogenic acid esterase UmChlE from culture supernatant of U. maydis was accomplished by three complementary separation steps; made in house; host or cells: Ustilago maydis itself (native producer), culture supernatant; Q Sepharose FF, preparative IEF, polyamide column
T1 sequence (A0A060S684 22-585, stated change not applied): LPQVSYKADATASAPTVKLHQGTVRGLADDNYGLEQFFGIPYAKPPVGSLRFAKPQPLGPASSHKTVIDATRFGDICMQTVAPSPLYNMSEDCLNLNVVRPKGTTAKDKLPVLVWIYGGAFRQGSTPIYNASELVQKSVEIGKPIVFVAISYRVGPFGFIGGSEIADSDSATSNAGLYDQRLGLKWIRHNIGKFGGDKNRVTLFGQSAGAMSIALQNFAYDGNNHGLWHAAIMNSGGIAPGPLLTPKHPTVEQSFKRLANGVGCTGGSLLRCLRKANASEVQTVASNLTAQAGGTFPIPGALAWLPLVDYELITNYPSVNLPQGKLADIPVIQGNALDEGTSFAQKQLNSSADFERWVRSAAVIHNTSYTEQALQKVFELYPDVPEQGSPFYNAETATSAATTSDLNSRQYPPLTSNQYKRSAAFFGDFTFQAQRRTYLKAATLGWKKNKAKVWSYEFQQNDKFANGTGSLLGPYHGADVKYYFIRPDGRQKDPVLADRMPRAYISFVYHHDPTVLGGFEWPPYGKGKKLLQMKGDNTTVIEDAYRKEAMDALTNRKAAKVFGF
Protocol: (§1) Chlorogenic acid esterase activity was determined at 37 °C in 50 mM Tris buffer at pH 7.5 using chlorogenic acid and methyl ferulate as standard substrates, unless otherwise stated. The release of the corresponding free acids was analyzed with HPLC-UV. If appropriate, the hydrolysis of other benzoic and cinnamic acid ester derivatives as well as feruloylated saccharides was measured with the same method. After incubation for one hour the reaction was terminated by doubling the reacting volume with acetonitrile. Samples were centrifuged (15 min, 15.000 × g) before injection to the HPLC (Chromolith Performance RP-18e reverse-phase column, 100 × 4.6 mm, Merck, Darmstadt, Germany). […] Substance elution was detected at 232 nm (benzoic and 3-hydroxybenzoic acid), 254 nm (4-hydroxybenzoic and vanillic acid), 275 nm (cinnamic and gallic acid), 306 nm (p-coumaric acid) and 323 nm (ferulic, caffeic, chlorogenic and sinapic acid) using a Shimadzu UV-Vis detector (SPD-10A VP, Shimadzu Deutschland GmbH, Duisburg, Germany). One unit of enzyme activity was defined as the amount of enzyme releasing one µmοl of free acid per minute under the specified conditions. All measurements were performed at least twice.
Enzyme tolerance to different solvents was investigated in the presence of 50 % (v/v) acetone, acetonitrile, diethyl ether, DMF, DMSO, ethanol, isoamyl alcohol, isobutyl alcohol, isopropanol, methanol, n-hexane, n-heptane, tert-butyl methyl ether or toluene, respectively, in 50 mM Tris buffer pH 7.5 containing 0.7 mM substrate. In an additional experiment, 0.84 mM substrate was used. After incubation (60 min, 37 °C, 900 rpm) the mixture was applied for HPLC analysis as described above. […] The effect of high salt concentrations (0.1 - 3 M NaCl) on enzyme activity was investigated, too.
Various metal ions and enzyme inhibitors were examined for their effect on chlorogenic acid esterase activity (Table 2). […] Hg^2+ reacts with thiol groups and can also reduce disulphide bonds (40). […] Table 2 Effect of metal ions, inhibitors and NaCl on UmChIE activity.
Remaining enzyme activity was measured after 1 h incubation with 1mM, or, in a further experiment, 1.95 mM methyl ferulate and different metal ions as well as inhibitors in concentrations listed above (at 37 °C, 50 mM Tris buffer pH 7.5). Numbers in parentheses are the estimates of the standard error. A sample without additive was used for the calculation of relative enzyme activities. ND: activity not detectable.

UmChlE [2] = target: T1, UmChlE; assay type: biochemical, Ustilago maydis; conditions: 1 mM (or 1.95 mM) substrate, 1 h, 37 °C, 50 mM Tris pH 7.5, ND = activity not detectable; for Relative esterase activity: chlorogenic acid = 100 %, standard error in parentheses
Protocol: as §1
Substrate specificity of the UmChlE was determined towards different cinnamate and benzoate esters as well as natural substrates, such as F-A, F-AX and F-AXG, with activity assays as described above. Three mM stock solutions of all substrates were prepared in water.
Purified UmChlE was incubated with 1 mM, or, in a further experiment, 1.95 mM of different substrates for 1 h (at 37 °C, 50 mM Tris buffer pH 7.5). Relative enzyme activities were calculated based on the most preferred substance of the UmChIE: chlorogenic acid which was set to 100 %. Numbers in parentheses are the estimates of the standard error.

RsChlE = target: T2, RsChlE (Rhizoctonia solani, UniProt A0A1D0BQV8); assay: Substrate specificity of purified RsChlE; assay type: biochemical; conditions: 1 mM (or 1.95 mM) substrate, 1 h, 30 °C, 50 mM Bis-Tris pH 6.0
T2 sequence (A0A1D0BQV8 39-563): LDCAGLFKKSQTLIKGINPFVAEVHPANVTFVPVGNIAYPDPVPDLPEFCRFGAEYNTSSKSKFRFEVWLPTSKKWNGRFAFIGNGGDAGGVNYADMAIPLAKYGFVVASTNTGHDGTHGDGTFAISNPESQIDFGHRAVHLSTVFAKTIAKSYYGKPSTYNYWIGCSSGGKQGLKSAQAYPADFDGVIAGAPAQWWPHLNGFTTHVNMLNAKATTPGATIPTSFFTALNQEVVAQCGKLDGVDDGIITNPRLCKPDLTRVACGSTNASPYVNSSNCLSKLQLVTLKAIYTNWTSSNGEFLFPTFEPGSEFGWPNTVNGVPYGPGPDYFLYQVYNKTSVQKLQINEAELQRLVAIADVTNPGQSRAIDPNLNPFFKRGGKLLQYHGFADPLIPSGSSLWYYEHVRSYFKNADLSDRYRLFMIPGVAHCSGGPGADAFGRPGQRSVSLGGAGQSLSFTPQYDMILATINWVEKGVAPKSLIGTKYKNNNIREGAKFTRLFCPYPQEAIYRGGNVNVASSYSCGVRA
Protocol: as §1
After purification of the recombinant RsChlE from the culture supernatant of Pichia pastoris with Ni-NTA, the enzyme was biochemically characterized. The experiments were performed like for UmChlE. pH and temperature optimums were analyzed. […] Table 4: Substrate specificity of purified RsChIE.
Purified RsChlE was incubated with 1 mM, or in an alternative experiment, 1.95 mM of different substrates for 1 h (at 30 °C, 50 mM Bis-Tris buffer pH 6.0). […] Numbers in parentheses are the estimates of the standard error.

[3] = 5 mM additive, 1 mM (or 1.95 mM) methyl ferulate, without additive = 100 %, standard error in parentheses, ND = activity not detectable

In the case of `[Cl-].[Cl-].[Co+2]` [CoCl2], the Relative esterase activity (UmChlE [1]; [3]) was 67 (0.11) % and the Relative esterase activity (UmChlE [1]; 5 mM additive, 1 mM (or 1.95 mM) methyl ferulate, without additive = 100 %, standard error in parentheses, ND = activity not detectable, listed as Co^2+) was 50 - 76%.

In the case of `[Cl-].[Na+]` [NaCl], the Relative esterase activity (UmChlE [1]; 100 mM additive, methyl ferulate) was 105 (0.02) %, the Relative esterase activity (UmChlE [1]; 500 mM additive, methyl ferulate) was 121 (0.01) % and the Relative esterase activity (UmChlE [1]; 1000 mM additive, methyl ferulate) was 125 (0.02) %. For the same molecule, the Relative esterase activity (UmChlE [1]; 2000 mM additive, methyl ferulate) was 142 (0.06) % and the Relative esterase activity (UmChlE [1]; 3000 mM (3 M) additive, methyl ferulate) was 150% and 150 (0.04) %.

In the case of `O=S(=O)([O-])[O-].[Mn+2]` [MnSO4], the Relative esterase activity (UmChlE [1]; [3]) was 90 (0.09) % and the Relative esterase activity (UmChlE [1]; 5 mM additive, 1 mM (or 1.95 mM) methyl ferulate, without additive = 100 %, standard error in parentheses, ND = activity not detectable, listed as Mn^2+) was 90%.

`[Cl][Fe]([Cl])[Cl]` [FeCl3] was tested, and the Relative esterase activity (UmChlE [1]; [3]) was 66 (0.65) %.

For `[Cl-].[Li+]` [LiCI], the Relative esterase activity (UmChlE [1]; [3]) was 106 (1.39) %.

For `O=S(=O)([O-])[O-].O=S(=O)([O-])[O-].O=S(=O)([O-])[O-].[Al+3].[Al+3]` [Al2(SO4)3], the Relative esterase activity (UmChlE [1]; [3]) was 53 (0.12) % and the Relative esterase activity (UmChlE [1]; 5 mM additive, 1 mM (or 1.95 mM) methyl ferulate, without additive = 100 %, standard error in parentheses, ND = activity not detectable, listed as Al^3+) was 50 - 76%.

`O=[N+]([O-])[O-].O=[N+]([O-])[O-].[Sr+2]` [SrNO3] was tested, and the Relative esterase activity (UmChlE [1]; [3]) was 104 (0,18) %.

In the case of `O=[N+]([O-])[O-].O=[N+]([O-])[O-].[Cu+2]` [Cu(NO3)2], the Relative esterase activity (UmChlE [1]; [3]) was 96 (0.53) %.

`COc1cc(/C=C/C(=O)OC[C@@H]2OC(O)[C@H](O)[C@H]2O)ccc1O` (stereo partly drawn) [F-A, 5-O-trans-feruloyl-L-arabinofuranose] was tested, and the Specific esterase activity (UmChlE [2]) was 2.0 U mg^-1 and 2.06 U mg^-1 and the Specific activity (RsChlE) was 4.48 U/mg.

With `O=S(=O)([O-])[O-].[Ni+2]` [NiSO4] the Relative esterase activity (UmChlE [1]; [3]) was 108 (0.87) %.

With `[Cl-].[K+]` [KCI] the Relative esterase activity (UmChlE [1]; [3]) was 108 (0.57) %.

`CCOC(=O)/C=C/c1ccc(O)c(OC)c1` [ethyl ferulate] gave a Specific esterase activity (UmChlE [2]) of 0.78 U mg^-1 and a Specific activity (RsChlE) of 3.60 U/mg.

`O=S(=O)([O-])[O-].[Zn+2]` [ZnSO4] was tested, and the Relative esterase activity (UmChlE [1]; [3]) was 76 (1.26) % and the Relative esterase activity (UmChlE [1]; 5 mM additive, 1 mM (or 1.95 mM) methyl ferulate, without additive = 100 %, standard error in parentheses, ND = activity not detectable, listed as Zn^2+) was 50 - 76%.

`CCOC(=O)C=Cc1ccccc1` [ethyl cinnamate] gave a Specific activity (RsChlE) of 0.91 U/mg.

`COc1cc(/C=C/C(=O)OC[C@@H]2OC(O)[C@H](O[C@@H]3OC[C@@H](O)[C@H](O)[C@H]3O[C@@H]3O[C@@H](CO)[C@@H](O)[C@@H](O)[C@@H]3O)[C@H]2O)ccc1O` (stereo partly drawn) [F-AXG, α-L-galactopyranosyl-(1→2)-β-D-xylopyranosyl-(1→2)-5-O-trans-feruloyl-L-arabinofuranose] was tested, and the Specific esterase activity (UmChlE [2]) was 0.9 U mg^-1 and 0.92 U mg^-1 and the Specific activity (RsChlE) was 3.66 U/mg.

In the case of `CC(=O)[O-].CC(=O)[O-].[Hg+2]` [HgAc2], the Relative esterase activity (UmChlE [1]; [3]) was “complete loss of enzyme activity”.

`[Cl-].[Cs+]` [CsCl] was tested, and the Relative esterase activity (UmChlE [1]; [3]) was 105 (1.21) %.

In the case of `COC(=O)/C=C/c1cc(OC)c(O)c(OC)c1` [methyl sinapate], the Relative esterase activity (UmChlE [2]) was “no” and the Relative esterase activity (UmChlE [2]; listed as MSA) was “total loss of activity”.

In the case of `O=[N+]([O-])[O-].O=[N+]([O-])[O-].O=[N+]([O-])[O-].[Cr+3]` [Cr(NO3)3], the Relative esterase activity (UmChlE [1]; [3]) was 69 (3.54) % and the Relative esterase activity (UmChlE [1]; 5 mM additive, 1 mM (or 1.95 mM) methyl ferulate, without additive = 100 %, standard error in parentheses, ND = activity not detectable, listed as Cr^3+) was 50 - 76%.

`[Cl-].[Cl-].[Mg+2]` [MgCl2] was tested, and the Relative esterase activity (UmChlE [1]; [3]) was 106 (0. 53) %.

`[Ca+2].[Cl-].[Cl-]` [CaCl2] was tested, and the Relative esterase activity (UmChlE [1]; [3]) was 103 (2.76) %.

`CCCCCCCCCCCCOS(=O)(=O)O` [SDS] was tested, and the inhibition at 5000 µM (UmChlE [1]; read-out: enzyme activity was inhibited) was 41%.

`COC(=O)/C=C/c1ccc(O)c(O)c1` [methyl caffeate] was tested, and the Specific esterase activity (UmChlE [2]) was 0.49 U mg^-1 and the Specific activity (RsChlE) was 4.61 U/mg.

For `O=S(=O)([O-])[O-].[Fe+2]` [FeSO4], the Relative esterase activity (UmChlE [1]; [3]) was 102 (0.50) %.

In the case of `COC(=O)C=Cc1ccccc1` [methyl cinnamate], the Specific activity (RsChlE) was 2.10 U/mg.
